Experimental data: patent publication US12161136B2, “Screening methods using GPRC6A taste receptors and pet food products and compositions prepared using the same” (MARS, INCORPORATED, priority 2018, dated 2024)

Experiments:
[1] = tested on: feline GPRC6A; assay: fGPRC6A calcium assay in HEK-293 T-REx/natClytin cells (FLIPR Tetra, Fluo-4 AM fluorescence); type: cell-based; settings: for Activation of the fGPRC6A receptor (intracellular calcium response): ligand alone, K2.3 clone, doxycycline-induced, Fluo-4 AM read-out
Experimental: The HEK-293 […] cell line was stably transfected by electroporation. Briefly, 3×10^6 cells detached from 60% confluent flasks were transfected with 10 μg of DNA construct by using the Gene Pulser II electroporator (Biorad) (parameters: 300 Volts, 950 μF). […] Tetra system was used to measure fluorescence or luminescence. HEK293 cells that transiently or stably expressed the […] taste receptor, were exposed to compounds to determine whether the compounds modulated the activity of the […] receptor. In particular, […] cell line was used as recipient cell line and stable transfections were carried out using an inducible expression construct encoding for the feline GPRC6A in combination with the chimeric Ga protein Gaq[…]. Stable pools underwent a first limiting dilution (LD) and the best clones were chosen after stimulation with the reference ligand L-Arg+20 mM Mg^2+, using both a fluorescent and a luminescent read-out. Four selected first LD clones were subjected to a second round of LD; CPA was then performed in order to choose the best performing clones. On the basis of the functional data obtained at FLIPR® Tetra, the final K2.3 clone was chosen for the subsequent optimization steps. Fluorescence (Fluo-4 AM dye) was chosen as best read-out given its higher sensitivity in comparison to luminescence. In particular, cells were seeded at 7,500 cells/well and tested 48 h after seeding (Doxycycline was added at 1 μg/mL 24 h after seeding). Then, medium was removed, and cells were incubated with Fluo-4 AM dye (20 μL/well) for 1 h at 37° C. […]

[2] = tested on: cats; assay: Cat feeding test (2-bottle choice test); type: in vivo; settings: 0.15 mM L-ornithine hydrochloride in water vs plain water; 24 cats; 36 hours testing time
Experimental: Cats were allowed access to water containing 0.15 mM L-ornithine hydrochloride and to plain water. The methodology used a 2-bottle choice test with 24 cats (the final number of cats for each test can vary due to data being discarded by spillage, etc.). Cats were housed individually during trial periods and had free access to water available between testing periods. The test involved a choice test between the tastant/mixture at a given concentration dissolved in deionized water versus deionized water only or another tastant/mixture. Control was made for positional bias (e.g., A/B exposure 1 and B/A exposure 2) and evaporation loss. The testing time was 36 hours (i.e., 18 hours per day, allowing a two-day crossover). Following two consecutive days of each testing, cats had two consecutive days of rest. Cats were offered a dry diet as a single meal at the start of the test period for one hour, calculated to meet the individual requirements for each cat.

| SMILES | Activation of the fGPRC6A receptor (intracellular calcium response) [1] | Modulation of the response to the tested L-alpha-amino acids ([1]; 20 mM Mg2+ together with L-Arginine, L-Ornithine or L-Lysine) | Average difference in intake versus plain water [2] [g] |
| --- | --- | --- | --- |
| COc1cccc([C@@H](C)NCCCc2ccccc2Cl)c1 [NPS R-568] | not functional |  |  |
| [Mg+2] [magnesium ion] | not activated | positive allosteric modulator |  |
| Cl.NCCC[C@H](N)C(=O)O [L-ornithine, L-ornithine hydrochloride] |  |  | 15.28 |
